In patent publication US11491109B2, “Pharmaceutical compositions for basic or neutral, low molecular weight compounds” (Hoffmann-La Roche Inc., priority 2017, dated 2022):
Converted amounts (≈) assume the structure as drawn. “And” between values parts separate entries of the source, which are not always exact repeats. Equal entries are not always repeated.

Experiment: pH of drug suspensions in water and in EPO-solutions
Format: physicochemical
Details: EPO 0.5%, 2%, and 5%; solutions started at pH 6.0
Procedure: All excipient solutions were adjusted to pH 6.0 before incubation and following equilibration, the residual solid was analyzed by means of XRPD. […] This extrapolation method was based on the Henderson-Hasselbalch equation and it is generally reliable when the experimental solubility value is within one pH unit difference.^25

Row | Structure (SMILES) | pH after 48 h in EPO
1 | OC(c1cc(C(F)(F)F)nc2c(C(F)(F)F)cccc12)C1CCCCN1 (stereo not shown) [MFQ, mefloquine] | 6.3 and 6.4

Experiment: Equilibrium solubility in EPO-solutions, 96-well SORESOS assay
Format: physicochemical
Details: 48 h, room temperature
Procedure: Polymer solutions were prepared by dissolving EPO (0.1%, 0.5%, 1%, 2%, 3%, 4%, 5% (w/w)) in deionized water and adjusting all solutions to pH 6.0 by hydrochloric acid and sodium hydroxide at 25° C. Solutions were checked carefully for absence of particles.
(§1) Solubility of compounds in EPO-solutions was determined by using a 96-well assay that was introduced to measure equilibrium solubility in parallel to a solid state analysis of the residual solid (SORESOS)^21 as described before.^22 In brief, APIs were dispensed using the powder-picking-method^23 in a 96-well flat bottom plate (Corning Inc., Durham, USA). Mixtures were agitated by head-over-head rotation for 48 h at room temperature after addition of stir bars and polymer solutions (150 μl). After mixing, the suspensions were carefully transferred into 96-well filter plates and the liquid and solid phase were separated by centrifugation. […] An isocratic flow (composition of the mobile phase is listed in Table 2) was applied for 0.3 min at a flow rate of 0.75 mL/min. […] Solid state analysis of residual solid was performed by X-ray powder diffraction (XRPD) using a STOE Stadi P Combi diffractometer with a primary Ge-monochromator (Cu Kα radiation), imaging plate position sensitive detector (IP-PSD), and a 96-well sample stage as described before.^21 The IP-PSD allowed simultaneous recording of the diffraction pattern on both sides of the primary beam which were summed up by the software STOE WinXPOW to reduce effects related to poor crystal orientation statistics. Samples were analyzed directly in the 96-well filter plate with an exposure time of 5 min per well.
as §1, with “After addition of stir bars and polymer solutions (150 μl), mixtures” for “Mixtures”, “temperature.” for “temperature after addition of stir bars and polymer solutions (150 μl).”, “7)” for “2)”

Row | Structure (SMILES) | EPO concentration at which solubility reached a plateau | EPO concentration of maximum solubility
2 | COc1ccccc1OCCNCC(O)COc1cccc2[nH]c3ccccc3c12 (stereo not shown) [CVD, carvedilol] | 2 % EPO (w/w) | 
3 | COC1=CC(=O)C[C@@H](C)[C@]12Oc1c(Cl)c(OC)cc(OC)c1C2=O [GFN, griseofulvin] |  | 2 % EPO (w/w)
4 | CC(C)(C)c1ccc(C(O)CCCN2CCC(C(O)(c3ccccc3)c3ccccc3)CC2)cc1 (stereo not shown) [TFD, terfenadine] | 2 % EPO (w/w) | 

Same assay, conditions: EPO 0.1%; vs adjusted solubility in water at pH 6.0

Row | Structure (SMILES) | Adjusted SE in EPO 0.1%
5 | COc1ccccc1OCCNCC(O)COc1cccc2[nH]c3ccccc3c12 (stereo not shown) [CVD, carvedilol] | 1.7
6 | OC(c1cc(C(F)(F)F)nc2c(C(F)(F)F)cccc12)C1CCCCN1 (stereo not shown) [MFQ, mefloquine] | 0.2
7 | CC(C)(C)c1ccc(C(O)CCCN2CCC(C(O)(c3ccccc3)c3ccccc3)CC2)cc1 (stereo not shown) [TFD, terfenadine] | 2.5

Same assay, conditions: EPO 0.1%; vs measured solubility in water

Row | Structure (SMILES) | Non-adjusted SE in EPO 0.1% (in brackets)
8 | COc1ccccc1OCCNCC(O)COc1cccc2[nH]c3ccccc3c12 (stereo not shown) [CVD, carvedilol] | 24.3
9 | OC(c1cc(C(F)(F)F)nc2c(C(F)(F)F)cccc12)C1CCCCN1 (stereo not shown) [MFQ, mefloquine] | 7.2
10 | CC(C)(C)c1ccc(C(O)CCCN2CCC(C(O)(c3ccccc3)c3ccccc3)CC2)cc1 (stereo not shown) [TFD, terfenadine] | 16.0

Same assay, conditions: EPO 0.1-5%, 48 h, room temperature

Row | Structure (SMILES) | course of solubility with polymer concentration
11 | COC1=CC(=O)C[C@@H](C)[C@]12Oc1c(Cl)c(OC)cc(OC)c1C2=O [GFN, griseofulvin] | solubility decreased again and finally reached a kind of plateau
12 | OC(c1cc(C(F)(F)F)nc2c(C(F)(F)F)cccc12)C1CCCCN1 (stereo not shown) [MFQ, mefloquine] | increase of solubility with polymer concentration up to 5% EPO

Same assay, conditions: EPO 0.5%; vs adjusted solubility in water at pH 6.0

Row | Structure (SMILES) | Adjusted SE in EPO 0.5%
13 | COc1ccccc1OCCNCC(O)COc1cccc2[nH]c3ccccc3c12 (stereo not shown) [CVD, carvedilol] | 6.7
14 | OC(c1cc(C(F)(F)F)nc2c(C(F)(F)F)cccc12)C1CCCCN1 (stereo not shown) [MFQ, mefloquine] | 1.0
15 | CC(C)(C)c1ccc(C(O)CCCN2CCC(C(O)(c3ccccc3)c3ccccc3)CC2)cc1 (stereo not shown) [TFD, terfenadine] | 6.6

Same assay, conditions: EPO 0.5%; vs measured solubility in water

Row | Structure (SMILES) | Non-adjusted SE in EPO 0.5% (in brackets)
16 | COc1ccccc1OCCNCC(O)COc1cccc2[nH]c3ccccc3c12 (stereo not shown) [CVD, carvedilol] | 94.9
17 | OC(c1cc(C(F)(F)F)nc2c(C(F)(F)F)cccc12)C1CCCCN1 (stereo not shown) [MFQ, mefloquine] | 37.3
18 | CC(C)(C)c1ccc(C(O)CCCN2CCC(C(O)(c3ccccc3)c3ccccc3)CC2)cc1 (stereo not shown) [TFD, terfenadine] | 43.2

Same assay, conditions: EPO 1.0%; vs adjusted solubility in water at pH 6.0

Row | Structure (SMILES) | Adjusted SE in EPO 1.0%
19 | COc1ccccc1OCCNCC(O)COc1cccc2[nH]c3ccccc3c12 (stereo not shown) [CVD, carvedilol] | 6.9
20 | OC(c1cc(C(F)(F)F)nc2c(C(F)(F)F)cccc12)C1CCCCN1 (stereo not shown) [MFQ, mefloquine] | 1.5
21 | CC(C)(C)c1ccc(C(O)CCCN2CCC(C(O)(c3ccccc3)c3ccccc3)CC2)cc1 (stereo not shown) [TFD, terfenadine] | 8.3

Same assay, conditions: EPO 1.0%; vs measured solubility in water

Row | Structure (SMILES) | Non-adjusted SE in EPO 1.0% (in brackets)
22 | OC(c1cc(C(F)(F)F)nc2c(C(F)(F)F)cccc12)C1CCCCN1 (stereo not shown) [MFQ, mefloquine] | 58.3
23 | CC(C)(C)c1ccc(C(O)CCCN2CCC(C(O)(c3ccccc3)c3ccccc3)CC2)cc1 (stereo not shown) [TFD, terfenadine] | 54.0

Same assay, conditions: EPO 2.0%; vs adjusted solubility in water at pH 6.0

Row | Structure (SMILES) | Adjusted SE in EPO 2.0%
24 | COc1ccccc1OCCNCC(O)COc1cccc2[nH]c3ccccc3c12 (stereo not shown) [CVD, carvedilol] | 10.7
25 | OC(c1cc(C(F)(F)F)nc2c(C(F)(F)F)cccc12)C1CCCCN1 (stereo not shown) [MFQ, mefloquine] | 2.4
26 | CC(C)(C)c1ccc(C(O)CCCN2CCC(C(O)(c3ccccc3)c3ccccc3)CC2)cc1 (stereo not shown) [TFD, terfenadine] | 11.7

Same assay, conditions: EPO 2.0%; vs measured solubility in water

Row | Structure (SMILES) | Non-adjusted SE in EPO 2.0% (in brackets)
27 | COc1ccccc1OCCNCC(O)COc1cccc2[nH]c3ccccc3c12 (stereo not shown) [CVD, carvedilol] | 152.3
28 | CC(C)(C)c1ccc(C(O)CCCN2CCC(C(O)(c3ccccc3)c3ccccc3)CC2)cc1 (stereo not shown) [TFD, terfenadine] | 76.2

Same assay, conditions: EPO 3.0%; vs adjusted solubility in water at pH 6.0

Row | Structure (SMILES) | Adjusted SE in EPO 3.0%
29 | COc1ccccc1OCCNCC(O)COc1cccc2[nH]c3ccccc3c12 (stereo not shown) [CVD, carvedilol] | 11.1
30 | OC(c1cc(C(F)(F)F)nc2c(C(F)(F)F)cccc12)C1CCCCN1 (stereo not shown) [MFQ, mefloquine] | 3.6
31 | CC(C)(C)c1ccc(C(O)CCCN2CCC(C(O)(c3ccccc3)c3ccccc3)CC2)cc1 (stereo not shown) [TFD, terfenadine] | 15.3

Same assay, conditions: EPO 3.0%; vs measured solubility in water

Row | Structure (SMILES) | Non-adjusted SE in EPO 3.0% (in brackets)
32 | COc1ccccc1OCCNCC(O)COc1cccc2[nH]c3ccccc3c12 (stereo not shown) [CVD, carvedilol] | 157.4
33 | OC(c1cc(C(F)(F)F)nc2c(C(F)(F)F)cccc12)C1CCCCN1 (stereo not shown) [MFQ, mefloquine] | 141.5
34 | CC(C)(C)c1ccc(C(O)CCCN2CCC(C(O)(c3ccccc3)c3ccccc3)CC2)cc1 (stereo not shown) [TFD, terfenadine] | 99.3

Same assay, conditions: EPO 4.0%; vs adjusted solubility in water at pH 6.0

Row | Structure (SMILES) | Adjusted SE in EPO 4.0%
35 | COc1ccccc1OCCNCC(O)COc1cccc2[nH]c3ccccc3c12 (stereo not shown) [CVD, carvedilol] | 10.6
36 | OC(c1cc(C(F)(F)F)nc2c(C(F)(F)F)cccc12)C1CCCCN1 (stereo not shown) [MFQ, mefloquine] | 4.4
37 | CC(C)(C)c1ccc(C(O)CCCN2CCC(C(O)(c3ccccc3)c3ccccc3)CC2)cc1 (stereo not shown) [TFD, terfenadine] | 14.6

Same assay, conditions: EPO 4.0%; vs measured solubility in water

Row | Structure (SMILES) | Non-adjusted SE in EPO 4.0% (in brackets)
38 | COc1ccccc1OCCNCC(O)COc1cccc2[nH]c3ccccc3c12 (stereo not shown) [CVD, carvedilol] | 150.9
39 | OC(c1cc(C(F)(F)F)nc2c(C(F)(F)F)cccc12)C1CCCCN1 (stereo not shown) [MFQ, mefloquine] | 172.5
40 | CC(C)(C)c1ccc(C(O)CCCN2CCC(C(O)(c3ccccc3)c3ccccc3)CC2)cc1 (stereo not shown) [TFD, terfenadine] | 94.8

Same assay, conditions: EPO 5.0%; vs adjusted solubility in water at pH 6.0

Row | Structure (SMILES) | Adjusted SE in EPO 5.0%
41 | COc1ccccc1OCCNCC(O)COc1cccc2[nH]c3ccccc3c12 (stereo not shown) [CVD, carvedilol] | 11.7
42 | OC(c1cc(C(F)(F)F)nc2c(C(F)(F)F)cccc12)C1CCCCN1 (stereo not shown) [MFQ, mefloquine] | 4.8
43 | CC(C)(C)c1ccc(C(O)CCCN2CCC(C(O)(c3ccccc3)c3ccccc3)CC2)cc1 (stereo not shown) [TFD, terfenadine] | 14.0

Same assay, conditions: EPO 5.0%; vs measured solubility in water

Row | Structure (SMILES) | Non-adjusted SE in EPO 5.0% (in brackets)
44 | COc1ccccc1OCCNCC(O)COc1cccc2[nH]c3ccccc3c12 (stereo not shown) [CVD, carvedilol] | 165.9
45 | OC(c1cc(C(F)(F)F)nc2c(C(F)(F)F)cccc12)C1CCCCN1 (stereo not shown) [MFQ, mefloquine] | 186.2
46 | CC(C)(C)c1ccc(C(O)CCCN2CCC(C(O)(c3ccccc3)c3ccccc3)CC2)cc1 (stereo not shown) [TFD, terfenadine] | 91.2

Same assay, conditions: aqueous EPO polymer solution, pH 6, aqueous with cosolvent or surfactant or cyclodextrin, thermodynamic from solid; EPO 5%, 48 h, room temperature

Row | Structure (SMILES) | solubility at 48 h [mg/mL]
47 | OC(c1cc(C(F)(F)F)nc2c(C(F)(F)F)cccc12)C1CCCCN1 (stereo not shown) [MFQ, mefloquine] | 12 (≈ 31700 µM)

Experiment: pKa via photometric titration (Roche internal data)
Format: physicochemical
Details: measured via photometric titration; basic model compounds

Row | Structure (SMILES) | pKa
48 | COc1ccccc1OCCNCC(O)COc1cccc2[nH]c3ccccc3c12 (stereo not shown) [CVD, carvedilol] | 8.1
49 | OC(c1cc(C(F)(F)F)nc2c(C(F)(F)F)cccc12)C1CCCCN1 (stereo not shown) [MFQ, mefloquine] | 9.2
50 | CC(C)(C)c1ccc(C(O)CCCN2CCC(C(O)(c3ccccc3)c3ccccc3)CC2)cc1 (stereo not shown) [TFD, terfenadine] | 9.1

Experiment: Drug solubility in water (aqueous solubility)
Format: physicochemical
Details: thermodynamic from solid, 24 h incubation, pH not adjusted, read-out: Solubility in water (standard deviation, n = 3)

Row | Structure (SMILES) | solubility at 24 h [µg/mL]
51 | OC(c1cc(C(F)(F)F)nc2c(C(F)(F)F)cccc12)C1CCCCN1 (stereo not shown) [MFQ, mefloquine] | 63 (≈ 167 µM)
52 | CC(C)(C)c1ccc(C(O)CCCN2CCC(C(O)(c3ccccc3)c3ccccc3)CC2)cc1 (stereo not shown) [TFD, terfenadine] | 2 (≈ 4.24 µM)

Same assay, conditions: thermodynamic from solid, extrapolated to pH 6.0 by Henderson-Hasselbalch equation, read-out: Adjusted solubility at pH 6.0

Row | Structure (SMILES) | solubility at 24 h [µg/mL]
53 | COc1ccccc1OCCNCC(O)COc1cccc2[nH]c3ccccc3c12 (stereo not shown) [CVD, carvedilol] | 71 (≈ 175 µM)
54 | OC(c1cc(C(F)(F)F)nc2c(C(F)(F)F)cccc12)C1CCCCN1 (stereo not shown) [MFQ, mefloquine] | 2450 (≈ 6470 µM)
55 | CC(C)(C)c1ccc(C(O)CCCN2CCC(C(O)(c3ccccc3)c3ccccc3)CC2)cc1 (stereo not shown) [TFD, terfenadine] | 13 (≈ 27.6 µM)
